Laboratory results published in article PMC5593877, “Identification of endoxylanase XynE from Clostridium thermocellum as the first xylanase of glycoside hydrolase family GH141” (Scientific Reports, 2017).

Target: T1, Xyn141E (Acetivibrio thermocellus, UniProt A3DHG8)
T1 construct: gene Cthe_2195
Assay: HPAEC-PAD of hydrolysis products
Assay type: biochemical
Details: 200 µg/mL substrate, 100 µg/mL enzyme, 10 mM MOPS pH 6.5, 50 mM NaCl, 10 mM CaCl2, 60 °C, 16 h

T1 sequence (A3DHG8 entry or part of it): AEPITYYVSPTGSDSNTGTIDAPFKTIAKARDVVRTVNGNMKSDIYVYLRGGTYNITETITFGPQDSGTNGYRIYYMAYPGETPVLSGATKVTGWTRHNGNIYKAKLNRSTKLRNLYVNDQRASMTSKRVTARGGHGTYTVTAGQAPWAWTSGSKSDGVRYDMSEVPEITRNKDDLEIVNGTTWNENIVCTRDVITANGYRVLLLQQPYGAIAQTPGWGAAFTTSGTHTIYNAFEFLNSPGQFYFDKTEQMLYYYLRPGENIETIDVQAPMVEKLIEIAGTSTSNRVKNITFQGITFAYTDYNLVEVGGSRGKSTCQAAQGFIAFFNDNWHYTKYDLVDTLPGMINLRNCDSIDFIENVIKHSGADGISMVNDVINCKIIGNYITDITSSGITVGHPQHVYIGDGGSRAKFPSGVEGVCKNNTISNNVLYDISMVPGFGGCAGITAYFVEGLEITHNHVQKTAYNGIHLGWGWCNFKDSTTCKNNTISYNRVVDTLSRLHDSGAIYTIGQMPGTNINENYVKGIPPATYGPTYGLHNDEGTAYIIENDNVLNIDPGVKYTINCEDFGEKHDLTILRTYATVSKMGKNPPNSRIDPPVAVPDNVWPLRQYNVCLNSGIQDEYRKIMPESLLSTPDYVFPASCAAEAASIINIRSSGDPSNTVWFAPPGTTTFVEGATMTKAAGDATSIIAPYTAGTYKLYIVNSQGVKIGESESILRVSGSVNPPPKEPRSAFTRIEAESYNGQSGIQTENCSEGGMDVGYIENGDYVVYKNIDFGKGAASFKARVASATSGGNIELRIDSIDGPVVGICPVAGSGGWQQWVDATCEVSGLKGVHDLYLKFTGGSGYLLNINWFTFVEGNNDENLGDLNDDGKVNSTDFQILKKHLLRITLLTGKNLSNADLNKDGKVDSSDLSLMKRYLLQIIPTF

| SMILES | HPAEC-PAD of hydrolysis products |
| --- | --- |
| OC1OC[C@@H](O[C@@H]2OC[C@@H](O[C@@H]3OC[C@@H](O[C@@H]4OC[C@@H](O)[C@H](O)[C@H]4O)[C@H](O)[C@H]3O)[C@H](O)[C@H]2O)[C@H](O)[C@H]1O (some centres unmarked) [X4, xylotetraose] | Xyn141E was able to hydrolyse X5 and X4 to X2 and X3 or X2, respectively. |
| OC1OC[C@@H](O[C@@H]2OC[C@@H](O[C@@H]3OC[C@@H](O[C@@H]4OC[C@@H](O[C@@H]5OC[C@@H](O)[C@H](O)[C@H]5O)[C@H](O)[C@H]4O)[C@H](O)[C@H]3O)[C@H](O)[C@H]2O)[C@H](O)[C@H]1O (some centres unmarked) [X5, xylopentaose] | Xyn141E was able to hydrolyse X5 and X4 to X2 and X3 or X2, respectively. |
